In series [1] the test system is HepG2 cells. Kind of series: Hepatotoxicity, XTT viability after 72 h. It is filed as cell-based. The settings on record: Homo sapiens; 72 h, HepG2, 5.5 mM glucose; read-out: Hepatotoxicity IC50, 5.5 mM glucose. As to the method:
Then, the cell viability (XTT assay) and reactive oxygen species (ROS) induction were evaluated.
(§1) (A) Hepatotoxicity provoked by compound 4 was assessed after 72 h incubation of HepG2 cells in low glucose medium (5 mM) in the presence of compound 4 (0.25–100 μM). (B) Mitochondrial toxicity was determined after 24 h incubation of HepG2 cells in either high glucose medium (25 mM) or galactose medium (10 mM) in the presence of compound 4 (2.5–150 μM). Cell viabilities were recorded in triplicates in three independent experiments and expressed as percentage of vehicle control ± SD and IC50 values were determined by GraphPad Prism software using following equation: Y = Bottom + (Top–Bottom)/(1 + 10ˆ((LogIC50-X)^∗HillSlope)), where IC50 is the concentration of compound 4 that inhibits cell viability half way between Bottom and Top plateaus, X is compound 4 concentration and HillSlope describes the steepness of the family of curves. […] (C) Concentration-dependent effect on ROS level. HepG2 cells were treated with compound 4 (0.25–100 μM) for 72 h, and then the intracellular level of total ROS in relative fluorescence units (RFU) was detected. The data are presented as the mean ± SD for at least three independent experiments and each experiment was carried out in triplicate. Final concentration of DMSO in samples was 1%. […] Single asterisks (^∗) indicate a significant difference (P < 0.05) compared to 1% DMSO control (one-way ANOVA with Dunnett’s post-test).
(§2) HepG2 cells (ATCC®, United Kingdom) were grown in complete Minimal Essential Medium (EMEM) (5.5 mM glucose) medium, supplemented with 10% (v/v) fetal calf serum, 200 μg/mL of streptomycin, 200 U/mL of penicillin G and 4 mM glutamine. They were cultured under a humidified atmosphere containing 5% CO2 at 37°C.
(§3) The cytotoxicity of the tested compounds was assessed with use of XTT cell proliferation kit II (Roche Diagnostics GmbH, Mannheim, Germany) according to the manufacturer’s instructions. Briefly HepG2 cells were seeded in a 96-well plate at a density of 22,000 cells per well. After 24 h, the tested neurosteroids in a concentration range from 0.5 to 200 μM were added to the culture media and incubated for 72 h before the XTT dye was added. Mitochondrial toxicity was assessed in HepG2 cells using glucose and galactose conditioned media and XTT assay as a read out for cell viability. In brief, cells were seeded onto 96 well, clear bottom tissue culture plates at a density of 22,000 cells/well and left overnight to attach. Six hours prior to the neurosteroids treatment the media was replaced with 100 μL DMEM media containing either glucose (25 mM glucose; 1 mM pyruvate; 2 mM glutamine, 10% FBS) or galactose (10 mM galactose, 1 mM pyruvate, 6 mM glutamine, 10% FBS). After that, the tested neurosteroids in a concentration range from 0.5 to 200 μM were added in the fresh appropriate assay medium (glucose or galactose) and incubated for 24 h before the XTT dye was added. The XTT absorbance was recorded at 495 nm after 1 h incubation with the dye. Compounds were dissolved in DMSO to produce the stock solutions at the concentration of 10 mM, with exception of PAG, 1, 6 (5 mM), and 11 (2.5 mM). Results were expressed as percentages of change in viability compared to appropriate DMSO control. IC50 values were determined by GraphPad Prism version 5.00 for Windows (GraphPad Software, La Jolla, CA, United States). All experiments were done in triplicates in three independent experiments to check the reproducibility.
Background: Tetrazolium assays rely on reduction of a dye to a coloured formazan, in cell work by metabolically active cells.

The nature of series [2]: Plasma stability, rat plasma. Format: in vitro ADME.
The test system of series [3] is HepG2 cells. Kind of series: Mitotoxicity, XTT viability in glucose vs galactose medium. The settings on record: for IC50: Homo sapiens, HepG2, 24 h; for Glu/Gal index (fold change): 24 h, HepG2, index higher than 3 indicates potential mitochondrial toxicity. As to the method:
as §1, §2, §3

Series [4] has as its target T1, GluN1/GluN2B receptors (Rattus norvegicus, UniProt P35439+Q00960).
T1 construct: expressed in transfected cells; host or cells: HEK293
In words: Patch-clamp inhibition of glutamate responses of GluN1/GluN2B receptors in transfected HEK293 cells. Format: cell-based.

In series [5] the test system is HepG2 cells. In words: ROS induction (CM-H2DCFDA). It is filed as cell-based. The conditions noted are these: Homo sapiens, HepG2, 72 h; read-out: ROS induction EC50. The method, then:
as §1
The effect of neurosteroids on oxidative stress was determined using general oxidative stress indicator CM-H2DCFDA (Thermo Fisher Scientific, Waltham, MA, United States) according to the manufacturer’s instructions. Briefly HepG2 cells were seeded in a 96-well plate at a density of 13,500 cells per well. After 24 h, the tested neurosteroids were added to the culture media and incubated for 72 h. Subsequently, cells were washed with HBSS, treated with 100 μL of 1 μM CM-H2DCF-DA solution in HBSS and incubated for 1 h in the dark at 37°C. Finally, cells were washed three times with HBSS and the fluorescence was measured using 495 excitation and 527 emission in fluorescence microplate reader (Cytation 3, Winooski, VT, United States). IC50 index values were determined by GraphPad Prism version 5.00 for Windows (GraphPad Software, La Jolla, CA, United States).

Series [6] in a line: Plasma stability, human plasma. Format: in vitro ADME. The method, then:
Then, 37.8 μL of stock solution was added to 1400 μL of human plasma, maintained at 37°C. Aliquots (50 μL) withdrawn at 0, 1, 4, 8, and 24 h were analyzed by HPLC. […] The supernatant was transferred to an autosampler vial and 1 μL was injected onto LC-MS system. The samples were analyzed with an Agilent 1260 HPLC (Agilent Technologies) coupled to ESI-TOF Agilent 6530 (Agilent Technologies) with Agilent Jet Stream Technology. Samples were separated on a Waters ACQUITY UPLC CSH Phenyl-Hexyl (100 × 2.1, 130 Å, 1.7 μm) at a flow rate 0.3 ml/min. […] The mass spectrometry instrument was operated in a negative ion mode with a voltage of +3.00 kV applied to the capillary. The temperature, the flow rate of the nitrogen drying gas, the pressure of the nitrogen nebulizing gas, and the flow rate of the sheath gas were set at 325°C, 10 l/min, 40 psi, 390°C, and 11 l/min, respectively. Results are represented as a percentage of a compound remaining in spiked human plasma.

Where [7] appears, read: read-out: Mitotoxicity IC50, 10 mM galactose.
Setting [8] is: read-out: Mitotoxicity IC50, 25 mM glucose.
Setting [9] is: as repeated in Table 2, read-out: IC50.
Setting [10] is: current responses to glutamate, HEK293, IC50 from single steroid dose, Hill coefficient fixed at 1.2, read-out: IC50 ± SD.

SMILES strings stand for the structures. Read-outs that look alike come from different tables or passages of the source.

T1 sequence (Q00960 27-1482, other chains not shown): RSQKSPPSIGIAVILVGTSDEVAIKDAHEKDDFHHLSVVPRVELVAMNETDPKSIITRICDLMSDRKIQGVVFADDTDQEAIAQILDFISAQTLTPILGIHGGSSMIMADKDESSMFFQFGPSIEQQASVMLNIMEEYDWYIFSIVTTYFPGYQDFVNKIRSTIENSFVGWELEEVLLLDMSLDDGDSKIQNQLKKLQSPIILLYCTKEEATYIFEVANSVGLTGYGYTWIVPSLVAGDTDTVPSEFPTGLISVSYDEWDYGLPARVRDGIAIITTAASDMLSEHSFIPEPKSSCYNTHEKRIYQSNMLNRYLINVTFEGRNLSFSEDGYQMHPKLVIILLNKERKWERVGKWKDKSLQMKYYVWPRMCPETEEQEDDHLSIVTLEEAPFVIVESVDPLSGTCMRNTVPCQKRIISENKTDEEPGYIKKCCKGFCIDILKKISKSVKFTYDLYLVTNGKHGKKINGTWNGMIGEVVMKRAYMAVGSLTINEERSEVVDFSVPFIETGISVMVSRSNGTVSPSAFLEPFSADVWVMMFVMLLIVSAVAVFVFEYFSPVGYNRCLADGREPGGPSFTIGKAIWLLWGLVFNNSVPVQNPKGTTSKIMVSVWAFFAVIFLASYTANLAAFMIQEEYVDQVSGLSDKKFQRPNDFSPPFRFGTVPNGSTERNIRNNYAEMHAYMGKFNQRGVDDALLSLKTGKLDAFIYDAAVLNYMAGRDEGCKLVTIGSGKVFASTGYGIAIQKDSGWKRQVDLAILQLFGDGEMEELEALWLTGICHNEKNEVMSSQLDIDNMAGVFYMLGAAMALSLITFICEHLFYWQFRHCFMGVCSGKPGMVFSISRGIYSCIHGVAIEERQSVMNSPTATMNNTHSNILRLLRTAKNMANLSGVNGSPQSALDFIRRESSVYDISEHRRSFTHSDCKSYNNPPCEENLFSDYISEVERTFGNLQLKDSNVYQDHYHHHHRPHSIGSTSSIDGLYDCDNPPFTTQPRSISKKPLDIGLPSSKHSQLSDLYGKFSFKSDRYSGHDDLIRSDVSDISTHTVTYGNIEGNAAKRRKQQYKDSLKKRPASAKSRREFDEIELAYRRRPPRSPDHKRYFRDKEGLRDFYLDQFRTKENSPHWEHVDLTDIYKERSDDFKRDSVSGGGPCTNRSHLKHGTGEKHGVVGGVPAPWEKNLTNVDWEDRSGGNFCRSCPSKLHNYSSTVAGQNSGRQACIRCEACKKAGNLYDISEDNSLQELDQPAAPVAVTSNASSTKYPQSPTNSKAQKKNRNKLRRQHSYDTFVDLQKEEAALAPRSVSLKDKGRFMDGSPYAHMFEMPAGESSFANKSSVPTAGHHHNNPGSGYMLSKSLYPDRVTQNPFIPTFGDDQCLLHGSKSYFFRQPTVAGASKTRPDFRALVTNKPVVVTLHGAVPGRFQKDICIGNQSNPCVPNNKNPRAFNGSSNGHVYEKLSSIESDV

With `CC(C)(C)OC(=O)N[C@@H](CC(=O)O)C(=O)N[C@@H]1CC[C@@]2(C)[C@H](CC[C@H]3[C@@H]4CCC[C@@]4(C)CC[C@@H]32)C1` [Compound 5, (S)-3-((tert-butoxycarbonyl)amino)-4-(((3R,5R,8S,9S,10S,13S,14S)-10,13-dimethylhexadecahydro-1H-cyclopenta[a]phenanthren-3-yl)amino)-4-oxobutanoic acid], the IC50 is more than 200 µM in series [1]; more than 200 µM in series [3] (setting [7]); more than 200 µM in series [3] (setting [8]); 5.4 µM in series [4] (setting [9]); 5.4 ± 2.3 µM in series [4] (setting [10]). Moreover, the amount remaining at 8 h, 42.1 μg/mL in series [2] (rat, plasma) turned out to be 93%; in series [6] (human, plasma), 100%. In series [4], this compound yielded a ΔGexp of -7.22 kcal/mol. For the same compound, the EC50 in series [5] is more than 200 µM.

`CS(=O)(=O)Nc1ccc([N+](=O)[O-])cc1Oc1ccccc1` [Nimesulide, nimesulide, reference compound]: the IC50 in series [1] amounted to 2.2 ± 0.3 µM; in series [3] (setting [7]), 18 ± 4 µM; in series [3] (setting [8]) it was 72 ± 8 µM. Besides, the “Glu/Gal index (fold change)” value in series [3] is recorded as 3.88. Besides, in series [5], the concentration giving a half-maximal response (EC50) is 3.5 ± 0.5 µM.

Regarding `C[C@@]12CCC[C@H]1[C@@H]1CC[C@@H]3C[C@H](NC(=O)CC(=O)O)CC[C@]3(C)[C@H]1CC2` [Compound 2, 3-(((3R,5R,8S,9S,10S,13S,14S)-10,13-dimethylhexadecahydro-1H-cyclopenta[a]phenanthren-3-yl)amino)-3-oxopropanoic acid], the IC50 was 148 ± 14 µM in series [1], 174 ± 12 µM in series [3] (setting [7]) and more than 200 µM in series [3] (setting [8]). Further, the amount remaining at 8 h, 42.1 μg/mL in series [2] (rat, plasma) is 100%; in series [6] (human, plasma), 98%. For the same compound, the “Glu/Gal index (fold change)” value in series [3] is listed as 1.32. For the same compound, the ΔGexp in series [4] was -6.59 kcal/mol. Besides, the EC50 in series [5] came out at 165 ± 18 µM.

With `C[C@@]12CCC[C@H]1[C@@H]1CC[C@@H]3C[C@H](NC(=O)CCCC(=O)O)CC[C@]3(C)[C@H]1CC2` [Compound 4, 5-(((3R,5R,8S,9S,10S,13S,14S)-10,13-dimethylhexadecahydro-1H-cyclopenta[a]phenanthren-3-yl)amino)-5-oxopentanoic acid], the IC50 was 4 ± 0.2 µM in series [1]; 11 ± 3 µM in series [3] (setting [7]); 48 ± 6 µM in series [3] (setting [8]); 8.9 µM in series [4] (setting [9]); 8.9 ± 1 µM in series [4] (setting [10]). The fraction remaining at 8 h, 42.1 μg/mL came out at 99% in series [2] (rat, plasma) and 96% in series [6] (human, plasma). For the same compound, in series [4], the ΔGexp was -6.92 kcal/mol. The EC50 in series [5] was 7 ± 2 µM.

Take `C[C@@]12CCC[C@H]1[C@@H]1CC[C@@H]3C[C@H](NC(=O)C(=O)O)CC[C@]3(C)[C@H]1CC2` [Compound 1, 2-(((3R,5R,8S,9S,10S,13S,14S)-10,13-dimethylhexadecahydro-1H-cyclopenta[a]phenanthren-3-yl)amino)-2-oxoacetic acid]: the IC50 in series [1] came out at 42 ± 7 µM; in series [3] (setting [7]), 72 ± 9 µM; in series [3] (setting [8]), 142 ± 12 µM; in series [4] (setting [9]) it was 21.7 µM; in series [4] (setting [10]), 21.7 ± 4.8 µM. The share remaining at 8 h, 42.1 μg/mL was 100% in series [2] (rat plasma, 8 h, 37°C, read-out: Plasma stability (% remaining after 8 h), Rat) and 100% in series [6] (human plasma, 8 h, 37°C, read-out: Plasma stability (% remaining after 8 h), Human). For the same compound, the “Glu/Gal index (fold change)” value in series [3] was found to be 1.97. The ΔGexp in series [4] is -6.39 kcal/mol. Also, the “IC50 ± SD” value in series [4] (current responses to glutamate, HEK293, IC50 from single steroid dose, Hill coefficient fixed at 1.2) is reported as “least inhibitory activity”. Moreover, the EC50 in series [5] was found to be 52 ± 6 µM.

In the case of `CC(C)(C)OC(=O)N[C@@H](CCC(=O)O)C(=O)N[C@@H]1CC[C@@]2(C)[C@H](CC[C@@H]3[C@@H]4CCC[C@@]4(C)CC[C@@H]32)C1` [Compound 7, (S)-4-((tert-butoxycarbonyl)amino)-5-(((3R,5R,8R,9S,10S,13S,14S)-10,13-dimethylhexadecahydro-1H-cyclopenta[a]phenanthren-3-yl)amino)-5-oxopentanoic acid], the IC50 in series [1] was more than 200 µM; in series [3] (setting [7]), more than 200 µM; in series [3] (setting [8]), more than 200 µM; in series [4] (setting [9]), 5.4 µM; in series [4] (setting [10]), 5.4 ± 2.4 µM. Moreover, the share remaining at 8 h, 42.1 μg/mL in series [2] (rat, plasma) amounted to 94%; in series [6] (human, plasma), 97%. In series [4], the ΔGexp is -7.22 kcal/mol. Further, in series [5], the EC50 is more than 200 µM.

For `C[C@@]12CCC[C@H]1[C@@H]1CC[C@@H]3C[C@H](NC(=O)[C@@H](N)CCC(=O)O)CC[C@]3(C)[C@H]1CC2` [Compound 8, (S)-4-amino-5-(((3R,5R,8S,9S,10S,13S,14S)-10,13-dimethylhexadecahydro-1H-cyclopenta[a]phenanthren-3-yl)amino)-5-oxopentanoic acid], the IC50 in series [1] was 65 ± 5 µM; in series [3] (setting [7]), 94 ± 14 µM; in series [3] (setting [8]), 98 ± 11 µM; in series [4] (setting [9]), 1.4 µM; in series [4] (setting [10]) it was 1.4 ± 0.2 µM. In addition, the fraction remaining at 8 h, 42.1 μg/mL in series [2] (rat, plasma) was determined as 95%; in series [6] (human, plasma) it was 98%. Also, the “Glu/Gal index (fold change)” value in series [3] is listed as 1.04. Besides, in series [4], the ΔGexp is -8.02 kcal/mol. Moreover, the EC50 in series [5] was found to be 71 ± 9 µM.

Regarding `C[C@@]12CCC[C@H]1[C@@H]1CC[C@@H]3C[C@H](NC(=O)CCC(=O)O)CC[C@]3(C)[C@H]1CC2` [Compound 3, 4-(((3R,5R,8S,9S,10S,13S,14S)-10,13-dimethylhexadecahydro-1H-cyclopenta[a]phenanthren-3-yl)amino)-4-oxobutanoic acid], the IC50 in series [1] is more than 200 µM; in series [3] (setting [7]), more than 200 µM; in series [3] (setting [8]), more than 200 µM; in series [4] (setting [9]), 11.2 µM; in series [4] (setting [10]) it was 11.2 ± 7.2 µM. The fraction remaining at 8 h, 42.1 μg/mL in series [2] (rat, plasma) is 100%; in series [6] (human, plasma), 98%. For the same compound, the ΔGexp in series [4] is -6.78 kcal/mol. In series [5], the EC50 was more than 200 µM.

For orientation: IC50 means the concentration that gives 50% inhibition. As usually defined, the fraction remaining is the share of the starting amount still present when the sample was taken. As a reminder, the EC50 is the concentration that produces a half-maximal response.
